Starred links: 1 amine or outer side, 2 acyl side, 3 side chain; linkers in the order of their positions; H or OH if unused. Positions of bridges follow the written chain, without caps; N, C: chain ends. Non-standard residues stand in square brackets, D forms with d. Residues, ends and D or L forms follow the SMILES beside them. Chg = N[C@H](C(=O)O)C1CCCCC1; Phg = N[C@H](C(=O)O)c1ccccc1; Suc = O=C(CCC(=O)[*:2])[*:1]; hLeu = CC(C)CC[C@H](N)C(=O)O; Nle = CCCC[C@H](N)C(=O)O; Nva = CCC[C@H](N)C(=O)O; Dap = NC[C@H](N)C(=O)O; Sar = CNCC(=O)O
Experiments:
Format in all cases: cell-based
[1] = molecular target: T1, human Oxytocin (OTR) receptor (Homo sapiens, UniProt P30559); experiment: Calcium flux assay (FLIPR), agonist mode, CHO cells expressing human oxytocin receptor; conditions: for EC50: CHO cells, human OTR, calcium flux FLIPR, read-out: hOT EC50; for Emax: CHO, read-out: hOT efficacy (%)
T1 construct: expressed in transfected cells
T1 sequence (P30559 1-389): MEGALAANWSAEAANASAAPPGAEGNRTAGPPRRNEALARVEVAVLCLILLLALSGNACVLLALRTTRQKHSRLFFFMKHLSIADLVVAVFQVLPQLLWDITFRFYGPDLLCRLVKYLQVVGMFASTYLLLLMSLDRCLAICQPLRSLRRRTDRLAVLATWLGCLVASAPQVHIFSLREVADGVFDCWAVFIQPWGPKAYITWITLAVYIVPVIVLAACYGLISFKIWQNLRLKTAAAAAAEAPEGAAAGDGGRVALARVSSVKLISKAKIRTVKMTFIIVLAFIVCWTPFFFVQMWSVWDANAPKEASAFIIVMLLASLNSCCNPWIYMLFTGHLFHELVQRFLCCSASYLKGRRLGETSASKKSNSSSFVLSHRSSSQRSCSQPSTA
From the text: (§1) Chines Hamster Ovary (CHO) cells were transfected with expression plasmids encoding either the human V1a, the human Oxytocin (OTR) or the human V2 receptor, the later in combination with the chimeric Gqs5 G protein to redirect the signal to Calcium flux. Stable cells were cloned by limiting dilution to yield monoclonal cell lines expressing either human V1a, human V2+Gqs5 or human OTR receptors and selected based on functional responses detected on a fluorometric imaging plate reader (FLIPR) detecting Calcium flux in the cell after receptor activation. The stable cell lines were grown in F-12 K Nutrient Mixture (Kaighns Modification), containing 10% foetal bovine serum (FBS), 1% penicillin-streptomycin, 1% L-[…], 200 ug/ml Geneticin at 37° C. in a 10% CO2 incubator at 95% humidity.
(§2) On the afternoon before the assay, cells were plated at a density of 50,000 cells/well into black 96 well plates with clear bottoms to allow cell inspection and fluorescence measurements from the bottom of each well. The density of cells was sufficient to yield a confluent monolayer the next day. Hanks balanced salt solution, without phenol red, containing 20 mM HEPES (pH 7.3) and 2.5 mM probenecid (assay buffer) was prepared fresh for each experiment. Compound dilutions were made using a Beckman Biomek 2000 laboratory automation workstation, in assay buffer containing 1% DMSO. The dye-loading buffer consisted of a final concentration of 2 μM Fluo-4-AM (dissolved in DMSO and pluronic acid) in assay buffer. The existing culture media was removed from the wells and 100 μl of the dye-loading buffer was added to each well and incubated for approximately 60 min at 37° C. in a 5% CO2 incubator at 95% humidity. Once dye-loaded, the cells were washed thoroughly on an Embla cell washer with the assay buffer to remove any unincorporated dye. Exactly 100 μl assay buffer was left in each well.
(§3) Each 96 well plate containing dye-loaded cells was placed into the FLIPR machine and the laser intensity set to a suitable level to detect low basal fluorescence. To test compounds as agonists, 25 μl diluted compound was added to the plate 10 seconds into the fluorescent measurements and fluorescent response was recorded for 5 minutes. The fluorescence data was normalized to the endogenous full agonist dose-response set at 100% for the maximum response and 0% for the minimum. Each agonist concentration-response curve was constructed using a four parameter logistic equation with Microsoft Excel XLFit as follows: Y=Minimum+((Maximum−Minimum)/(1+10^(LogEC50-X)nH)), where y is the % normalized fluorescence, minimum is the minimum y, maximum is the maximum y, logEC50 is the log10 concentration which produces 50% of the maximum induced fluorescence, x is the log10 of the concentration of the agonist compound and H is the slope of the curve (the Hill Coefficient). The maximum value gives the efficacy of the agonist test compound in percentage. The concentration of agonist that produced a half-maximal response is represented by the EC50 value, the logarithm of which yielded the pEC50 value.

human V1a receptor = molecular target: T2, human V1a receptor (Homo sapiens, UniProt P37288); experiment: Calcium flux assay (FLIPR), agonist mode, CHO cells expressing human V1a receptor; conditions: read-out: hV1a EC50
T2 construct: expressed in transfected cells
T2 sequence (P37288 whole entry): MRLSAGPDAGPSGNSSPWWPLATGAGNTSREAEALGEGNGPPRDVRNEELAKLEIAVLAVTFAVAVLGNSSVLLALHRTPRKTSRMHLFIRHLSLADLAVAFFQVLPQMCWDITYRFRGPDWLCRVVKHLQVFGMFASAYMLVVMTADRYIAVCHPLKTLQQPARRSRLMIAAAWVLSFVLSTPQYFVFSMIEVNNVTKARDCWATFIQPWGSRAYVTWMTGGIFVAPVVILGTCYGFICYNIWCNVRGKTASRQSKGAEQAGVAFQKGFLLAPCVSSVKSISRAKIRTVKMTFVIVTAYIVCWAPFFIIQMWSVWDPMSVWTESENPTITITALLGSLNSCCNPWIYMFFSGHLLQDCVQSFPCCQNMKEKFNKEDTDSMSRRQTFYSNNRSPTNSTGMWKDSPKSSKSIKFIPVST
From the text: as §1, §2, §3

human V2 receptor = molecular target: T3, human V2 receptor (Homo sapiens, UniProt P30518); experiment: Calcium flux assay (FLIPR), agonist mode, CHO cells expressing human V2 receptor + Gqs5; conditions: for EC50: CHO cells, human V2 + chimeric Gqs5, calcium flux FLIPR, read-out: hV2 EC50
T3 construct: expressed in transfected cells
T3 sequence (P30518 whole entry): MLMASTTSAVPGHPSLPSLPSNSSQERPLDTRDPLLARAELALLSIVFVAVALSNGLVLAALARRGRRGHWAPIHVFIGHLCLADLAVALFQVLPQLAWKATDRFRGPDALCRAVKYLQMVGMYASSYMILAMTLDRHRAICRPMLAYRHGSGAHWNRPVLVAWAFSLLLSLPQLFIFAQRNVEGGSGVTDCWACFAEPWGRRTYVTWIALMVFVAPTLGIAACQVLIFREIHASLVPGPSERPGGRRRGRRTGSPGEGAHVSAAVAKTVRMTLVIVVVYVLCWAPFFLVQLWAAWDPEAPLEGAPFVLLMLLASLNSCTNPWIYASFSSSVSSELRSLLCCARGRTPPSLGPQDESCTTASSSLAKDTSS
From the text: as §1, §2, §3

[2] = maximum response normalized to endogenous full agonist = 100%

Row | EC50 [1] [nM] | Emax [1, 2] [%] | EC50 (human V1a receptor) [µM] | EC50 (human V2 receptor) [nM] | hV2 efficacy (%) (human V2 receptor; [2]) | Emax (human V2 receptor; CHO, maximum response normalized to endogenous full agonist = 100%, read-out: hV2 efficacy (%)) [%] | hOT efficacy (%) [1, 2] [%] | Structure (SMILES)
1 | 0.8 | 103 | > 27 | 213 | 118 |  |  | CC[C@H](C)[C@@H]1NC(=O)[C@H](Cc2ccc(O)cc2)NC(=O)CCC(=O)NC[C@@H](C(=O)N(C)CC(=O)N[C@@H](CCC(C)C)C(=O)NCC(N)=O)NC(=O)[C@H](CC(N)=O)NC(=O)[C@H](CCC(N)=O)NC1=O [Example 25] (YIQN[Dap][Sar][hLeu]G-NH2; linker N-5 via Suc)
2 | 0.8 | 107 | > 27 | 282 | 114 |  |  | CCC[C@H](NC(=O)CN(C)C(=O)[C@@H]1CNC(=O)CCC(=O)N[C@@H](Cc2ccc(O)cc2)C(=O)N[C@@H]([C@@H](C)CC)C(=O)N[C@@H](CCC(N)=O)C(=O)N[C@@H](CC(N)=O)C(=O)N1)C(=O)NCC(N)=O [Example 27] (YIQN[Dap][Sar][Nva]G-NH2; linker N-5 via Suc)
3 | 0.9 | 113 | > 27 | 612 | 130 |  |  | CC[C@H](C)[C@@H]1NC(=O)[C@H](Cc2ccc(O)cc2)NC(=O)CCC(=O)NC[C@@H](C(=O)N(C)CC(=O)N[C@@H](CC(C)C)C(=O)NCC(N)=O)NC(=O)[C@H](CC(N)=O)NC(=O)[C@H](CCC(N)=O)NC1=O [Example 3] (YIQN[Dap][Sar]LG-NH2; linker N-5 via Suc)
4 | 0.5 | 104 | > 27 | 152 | 120 |  |  | CC[C@H](C)[C@@H]1NC(=O)[C@H](Cc2ccc(O)cc2)NC(=O)CCC(=O)NC[C@@H](C(=O)N(C)CC(=O)N[C@H](C(=O)NCC(N)=O)C2CCCCC2)NC(=O)[C@H](CC(N)=O)NC(=O)[C@H](CCC(N)=O)NC1=O [Example 24] (YIQN[Dap][Sar][Chg]G-NH2; linker N-5 via Suc)
5 | 0.2 | 112 | > 27 | 53 | 121 |  |  | CC[C@H](C)[C@@H]1NC(=O)[C@H](Cc2ccc(O)cc2)NC(=O)CCC(=O)NC[C@@H](C(=O)N(C)CC(=O)N[C@H](C(=O)NCC(N)=O)c2ccccc2)NC(=O)[C@H](CC(N)=O)NC(=O)[C@H](CCC(N)=O)NC1=O [Example 37] (YIQN[Dap][Sar][Phg]G-NH2; linker N-5 via Suc)
6 | 0.5 | 107 | > 27 | 281 | 119 |  |  | CC[C@H](C)[C@@H]1NC(=O)[C@H](Cc2ccc(O)cc2)NC(=O)CCC(=O)NC[C@@H](C(=O)N(C)CC(=O)N[C@@H](CCSC)C(=O)NCC(N)=O)NC(=O)[C@H](CC(N)=O)NC(=O)[C@H](CCC(N)=O)NC1=O [Example 26] (YIQN[Dap][Sar]MG-NH2; linker N-5 via Suc)
7 | 0.7 | 111 | > 27 | 1130 |  | 123 |  | CC[C@H](C)[C@@H]1NC(=O)[C@H](Cc2ccc(O)cc2)NC(=O)CCC(=O)NC[C@@H](C(=O)N(C)CC(=O)N[C@H](C(=O)NCC(N)=O)C(C)C)NC(=O)[C@H](CC(N)=O)NC(=O)[C@H](CCC(N)=O)NC1=O [Example 5] (YIQN[Dap][Sar]VG-NH2; linker N-5 via Suc)
8 | 0.8 | 109 | 0.391 | 176 | 106 |  |  | CC[C@H](C)[C@@H]1NC(=O)[C@H](Cc2ccc(O)cc2)NC(=O)CCC(=O)NC[C@@H](C(=O)N2CCC[C@H]2C(=O)N[C@@H](CCC(C)C)C(=O)NCC(N)=O)NC(=O)[C@H](CC(N)=O)NC(=O)[C@H](CCC(N)=O)NC1=O [Example 22] (YIQN[Dap]P[hLeu]G-NH2; linker N-5 via Suc)
9 | 1 |  | > 27 | 364 | 104 |  | 119 | CCCC[C@H](NC(=O)CN(C)C(=O)[C@@H]1CNC(=O)CCC(=O)N[C@@H](Cc2ccc(O)cc2)C(=O)N[C@@H]([C@@H](C)CC)C(=O)N[C@@H](CCC(N)=O)C(=O)N[C@@H](CC(N)=O)C(=O)N1)C(=O)NCC(N)=O [Example 6] (YIQN[Dap][Sar][Nle]G-NH2; linker N-5 via Suc)
10 | 0.4 | 114 | 0.47 | 59 | 114 |  |  | CC[C@H](C)[C@@H]1NC(=O)[C@H](Cc2ccc(O)cc2)NC(=O)CCC(=O)NC[C@@H](C(=O)N2CCC[C@H]2C(=O)N[C@H](C(=O)NCC(N)=O)c2ccccc2)NC(=O)[C@H](CC(N)=O)NC(=O)[C@H](CCC(N)=O)NC1=O [Example 19] (YIQN[Dap]P[Phg]G-NH2; linker N-5 via Suc)

— patent publication US9957298B2, “Peptides as oxytocin agonists” (Hoffmann-La Roche Inc., priority 2014, dated 2018)
